Data from ChEMBL document CHEMBL3885861, “Open TG-GATES”.

Species on record: Rattus norvegicus
Assay: Open TG-GATES - Regimen: Daily Repeat
Type: toxicity, organism-based, Sprague-Dawley
Set-up: regimen Daily Repeat, gender Male, age 6 weeks
Settings: in vivo, po, 100 mg/kg, route gavage, dose level Middle; for APTT / Bas / Eos / Fbg / Hb / Ht / Lym / MCH / MCHC / MCV / Mono / Neu / PT / Plat / RBC / Ret / WBC: tissue Blood; for KIDNEY_L / KIDNEY_R / KIDNEY_TOTAL: tissue Kidney; for LIVER: tissue Liver; for A/G / ALP / ALT / AST / BUN / CRE / Ca / Cl / DBIL / GLC / IP / K / LDH / Na / PL / RALB / TBIL / TC / TG / TP / gamma-GTP: tissue Plasma

## C[C@]12CCC(=O)C=C1CC[C@@H]1[C@@H]2CC[C@@]2(C)[C@H]1CC[C@]2(C)O [METHYLTESTOSTERONE]
72 h, time 3 day
  TERMINAL_BW: 237.7 g
  APTT: 15.9 s
  Bas: 0%
  Eos: 1%
  Fbg: 325.4 mg/dL
  Hb: 13.7 g/dL
  Ht: 40.1%
  Lym: 73.6%
  MCH: 21.9 pg
  MCHC: 34%
  MCV: 64.5 fL
  Mono: 2.4%
  Neu: 22.6%
  PT: 13 s
  Plat: 107 x10_4/uL
  RBC: 623.4 x10_4/ul
  Ret: 7%
  WBC: 71.4 x10_2/uL
  KIDNEY_L: 1.1 g
  KIDNEY_R: 1 g
  KIDNEY_TOTAL: 2.1 g
  LIVER: 11.9 g
  A/G: 0.9
  ALP: 1787 IU/L
  ALT: 41.8 IU/L
  AST: 65.2 IU/L
  BUN: 14.6 mg/dL
  CRE: 0.2 mg/dL
  Ca: 11.1 mg/dL
  Cl: 107.2 meq/L
  DBIL: 0.02 mg/dL
  GLC: 180 mg/dL
  IP: 8.2 mg/dL
  K: 4.1 meq/L
  LDH: 77.4 IU/L
  Na: 143.4 meq/L
  PL: 135 mg/dL
  RALB: 2.8 g/dL
  TBIL: 0.026 mg/dL
  TC: 55 mg/dL
  TG: 155.2 mg/dL
  TP: 6 g/dL
  gamma-GTP: 1 IU/L
[…], time 7 day
  TERMINAL_BW: 271.1 g
  APTT: 15.7 s
  Bas: 0%
  Eos: 1%
  Fbg: 324.2 mg/dL
  Hb: 13.9 g/dL
  Ht: 40.8%
  Lym: 79%
  MCH: 21 pg
  MCHC: 34.1%
  MCV: 61.4 fL
  Mono: 2.6%
  Neu: 16.8%
  PT: 13.4 s
  Plat: 116 x10_4/uL
  RBC: 663.8 x10_4/ul
  Ret: 5.3%
  WBC: 72.5 x10_2/uL
  KIDNEY_L: 1.1 g
  KIDNEY_R: 1.2 g
  KIDNEY_TOTAL: 2.3 g
  LIVER: 13.1 g
  A/G: 0.9
  ALP: 2042.4 IU/L
  ALT: 46.8 IU/L
  AST: 71.6 IU/L
  BUN: 16.6 mg/dL
  CRE: 0.2 mg/dL
  Ca: 11 mg/dL
  Cl: 105.4 meq/L
  DBIL: 0.028 mg/dL
  GLC: 194.8 mg/dL
  IP: 8 mg/dL
  K: 4 meq/L
  LDH: 100 IU/L
  Na: 143 meq/L
  PL: 133.6 mg/dL
  RALB: 2.7 g/dL
  TBIL: 0.028 mg/dL
  TC: 45.8 mg/dL
  TG: 238.4 mg/dL
  TP: 5.9 g/dL
  gamma-GTP: 1.2 IU/L
[…], time 14 day
  TERMINAL_BW: 314.6 g
  APTT: 19.7 s
  Bas: 0.2%
  Eos: 0.6%
  Fbg: 304 mg/dL
  Hb: 14.3 g/dL
  Ht: 41%
  Lym: 78.2%
  MCH: 20.4 pg
  MCHC: 34.9%
  MCV: 58.5 fL
  Mono: 3.2%
  Neu: 17.2%
  PT: 13.5 s
  Plat: 113.1 x10_4/uL
  RBC: 701.4 x10_4/ul
  Ret: 3.6%
  WBC: 101.8 x10_2/uL
  KIDNEY_L: 1.3 g
  KIDNEY_R: 1.3 g
  KIDNEY_TOTAL: 2.6 g
  LIVER: 15 g
  A/G: 0.8
  ALP: 1318.6 IU/L
  ALT: 64.2 IU/L
  AST: 76.2 IU/L
  BUN: 15 mg/dL
  CRE: 0.2 mg/dL
  Ca: 10.6 mg/dL
  Cl: 105.2 meq/L
  DBIL: 0.018 mg/dL
  GLC: 198.8 mg/dL
  IP: 7.9 mg/dL
  K: 4.1 meq/L
  LDH: 118.2 IU/L
  Na: 141.6 meq/L
  PL: 137.8 mg/dL
  RALB: 2.8 g/dL
  TBIL: 0.026 mg/dL
  TC: 52.8 mg/dL
  TG: 157 mg/dL
  TP: 6.1 g/dL
  gamma-GTP: 1.2 IU/L
[…], time 28 day
  TERMINAL_BW: 402.8 g
  APTT: 17.5 s
  Bas: 0%
  Eos: 1.2%
  Fbg: 337 mg/dL
  Hb: 15.6 g/dL
  Ht: 43.7%
  Lym: 77%
  MCH: 19.9 pg
  MCHC: 35.6%
  MCV: 55.8 fL
  Mono: 2.6%
  Neu: 18.8%
  PT: 13.6 s
  Plat: 99.5 x10_4/uL
  RBC: 783.4 x10_4/ul
  Ret: 3%
  WBC: 101.5 x10_2/uL
  KIDNEY_L: 1.6 g
  KIDNEY_R: 1.5 g
  KIDNEY_TOTAL: 3.2 g
  LIVER: 17.8 g
  A/G: 0.8
  ALP: 1264.2 IU/L
  ALT: 43 IU/L
  AST: 59.8 IU/L
  BUN: 13.8 mg/dL
  CRE: 0.2 mg/dL
  Ca: 11.1 mg/dL
  Cl: 103 meq/L
  DBIL: 0.028 mg/dL
  GLC: 189.2 mg/dL
  IP: 6.4 mg/dL
  K: 3.7 meq/L
  LDH: 99.4 IU/L
  Na: 143 meq/L
  PL: 141 mg/dL
  RALB: 2.8 g/dL
  TBIL: 0.028 mg/dL
  TC: 41.2 mg/dL
  TG: 321.6 mg/dL
  TP: 6.4 g/dL
  gamma-GTP: 1 IU/L
